Like-named read-outs stand apart in the source and are kept apart here. Ends that are not written are not given here.
Experiments:
[1] = tested on: human recombinant calprotectin; experiment: Fluorescence polarization affinity measurement of fluorescein-labelled peptides; type: binding
Experimental: The reaction mixture was incubated at 30° C. for 1 hr, and the completion of the reaction was assessed by LCMS. The reaction was stopped by addition of HCOOH (200 μL) and the cyclized peptide was lyophilized. The final purification was performed as before with a reversed-phase C18 column (X-bridge peptide BEH C18 5 μm, 300 Å, 10×250 mm, Waters) applying a flow rate of 6 mL/min and an appropriate linear gradient in 40 min. Fractions containing the desired peptide were lyophilized. The purity of the peptides was assessed by analysing around 20 μg of peptide by RP-HPLC (1260 HPLC system, Agilent) using a C18 column (ZORBAX 300SB-C18, 5 μm, 300 Å, 4.6×250 mm, Agilent). Peptides were run at a flow rate of 1 mL min^−1 with a linear gradient of 0-100% of solvent B over 15 min (A: 94.9% H2O, 5% ACN and 0.1% TFA; B: 99.9% ACN and 0.1% TFA). The mass was determined by electrospray ionization mass spectrometry (ESI-MS) in positive ion mode on a single quadrupole liquid chromatography mass spectrometer (LCMS-2020, Shimadzu). In order to measure the affinity of selected and synthesized peptides in fluorescence polarization, calprotectin was serially diluted in 20 mM HEPES, 100 mM NaCl, 2 mM CaCl2, pH 7.5, 1 mM DTT with 0.01% v/v Tween-20. 16 μL of protein were added to 4 μL of the fluorescent peptide (20 nM final concentration) in 96-well microtiter plates (black, half-area). Fluorescence anisotropy was measured on a microwell plate reader (Infinite M200Pro, Tecan), with a filter for excitation at 485 nm and emission at 535 nm. Dissociation constant (Kd) was calculated using the following equation on Prism 5 (GraphPad): […]
were A is anisotropy, Af and Ab are the anisotropy values for free and bound ligand, respectively. [L]T is the concentration of total fluorescent ligand and [P]T the concentration of the protein.
Subsequent fluorescence polarization experiments were performed according to example 1.

Calprotectin [2] = experiment: Surface plasmon resonance (Biacore 8K) with immobilized Calprotectin; type: binding, human; conditions: highest concentration tested (500 nM)
Experimental: In order to complement and validate the results obtained by FP, binding responses and kinetics of peptides with immobilized Calprotectin were analysed by SPR. The experiments were performed using a Biacore™ 8K instrument (GE Healthcare). Calprotectin (at 5 μg/mL) was dissolved in 10 mM acetate buffer (pH 5.0) and immobilized on a CM5 series S chip by standard amine coupling method in running buffer (10 mM HEPES pH 7.4, 150 mM NaCl, 2 mM CaCl2, and 0.005% v/v Tween-20) at 25° C. Typical immobilization levels were 3000 resonance units (RUs). Reference cell was treated in the same way but without the injection of protein. A single concentration for each peptide (500 nM) was injected in running buffer (10 mM HEPES pH 7.4, 150 mM NaCl, 2 mM CaCl2, 0.005% v/v Tween-20 and 0.5% v/v DMSO) to measure the binding level. For the measurement of binding kinetics and dissociation constants, five serial dilutions (3-fold) of peptides were prepared in running buffer (with 0.5% DMSO) and analysed in single cycle kinetics mode with the contact and dissociation times of 90 s and 120 s, respectively.
The structure-activity relationship (SAR) analysis of Peptide 3 was assessed by synthesizing a large number of variants of Peptide 3 in which only one amino acid was altered at a time and the binding affinity was measured by surface plasmon resonance (SPR) and fluorescence polarization (FP).

Calprotectin [3] = molecular target: T1, Calprotectin (Homo sapiens, UniProt P05109+P06702); experiment: Sandwich ELISA with biotinylated calprotectin binding peptide and Strep-HRP; conditions: incubation times of 60 minutes
T1 sequence (P05109 1-93): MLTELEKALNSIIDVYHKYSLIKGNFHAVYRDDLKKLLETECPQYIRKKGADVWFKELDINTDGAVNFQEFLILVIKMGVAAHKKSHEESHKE
T1 sequence (P06702 1-114): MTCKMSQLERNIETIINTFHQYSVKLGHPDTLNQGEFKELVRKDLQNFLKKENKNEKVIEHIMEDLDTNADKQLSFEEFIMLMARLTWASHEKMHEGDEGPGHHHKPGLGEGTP
Experimental: The wells of 96 well Immulon 4 HBX-Extra High Binding plates (Thermo Fisher Scientific) were coated by overnight incubation at 4° C. with 80 μL of a 0.5 μg/mL solution of anti-calprotectin rabbit polyclonal antibody in Na2HCO3 (0.2 M, pH 9.4). The plates were rinsed four times with 200 μL of washing buffer (25 mM Tris, 150 mM NaCl, 2 mM CaCl2, PH 7.4, with 0.05% v/v Tween-20) per well. Then, all the wells were blocked by incubation with 300 μL of blocking buffer (25 mM Tris, 150 mM NaCl, pH 7.4, with 0.05% v/v Tween-20 and 3% w/v BSA) for 1 h at room temperature with shaking. After this time, the blocking buffer was removed and 80 μL of calprotectin was added in dilution buffer (wash buffer with 1% w/v BSA) for 1h at room temperature with shaking. The wells were washed 4 times with washing buffer. […] The solution was removed and the wells were washed 6times with washing buffer. 80 μL of TMB substrate (ready to use solution, SigmaAldrich) were added for 30 minutes and the reaction was stopped with 40 μL of sulfuric acid (2 M). The absorbance was read at 450 nm in a microwell plate reader (Infinite M200Pro, Tecan).

Substance	affinity to recombinant calprotectin (in words) [1]	further results
ACRTCPLFTCPSCG (not fully specified; cyclised or stapled)	excellent binding affinity	–
CQCPWDLFSQHSLSDCCD (cyclised or stapled)	excellent binding affinity	–
CTQSPCPLYDSHQCSCK (cyclised or stapled)	excellent binding affinity	–
GCDLAHQPCPLYKCTKCP (cyclised or stapled)	excellent binding affinity	–
RCPECVAFPMFQCHWYCG [peptide 3]	excellent binding affinity	SPR signal change (Calprotectin [2]): ~40 response units
RSPESVAFPMFQSHWYSG [linear peptide 3, fully linear peptide comprising only serines instead of cysteines]	–	affinity to recombinant calprotectin (in words) ([1]; listed as RSPESVAFPMFQSHWYSG): excellent binding affinity; affinity to recombinant calprotectin (in words) ([1]; listed as fully linear peptide): comparable affinities
SCQCPWDLFSQHSLSDCCD (cyclised or stapled)	excellent binding affinity	–
Strep-HRP biotinylated peptide complex: linear peptide 3-biotin pre-mixed with streptavidin conjugated horse radish peroxidase (RSPESVAFPMFQSHWYSG; also: biotin, end not given here, non-covalent complex with streptavidin-HRP)	–	detectable calprotectin concentration (Calprotectin [3]): below 5 nM
TCPLNRTQCPLYACTTCP (not fully specified; cyclised or stapled)	excellent binding affinity	–
VCPCPLFRAHGCSRFSCQ (not fully specified; cyclised or stapled)	excellent binding affinity	–
VCQQTASRCPVWECQRCP (not fully specified; cyclised or stapled)	excellent binding affinity	–
WCTQSPCPLYDSHQCSCK (not fully specified; cyclised or stapled)	excellent binding affinity	–
